Assay results taken from patent US9409966B2, “Glucagon-like peptide-1 derivatives and their pharmaceutical use” (priority 2007, dated 2016).
Like-named read-outs stand apart in the source and are kept apart here. *1 amine or outer side, *2 acyl side, *3 side chain or, on linkers, in order; H or OH if unused. Where a SMILES comes first, the peptide text is derived from it. Side-chain parts run from the residue outwards. [ ]: non-standard residue; d: D form. The star is where a group is joined. C18 diacid = O=C(O)CCCCCCCCCCCCCCCCC(=O)*; γGlu = O=C(O)[C@H](CCC(=O)[*:2])N[*:1]; AEEA = NCCOCCOCC(=O)O; Aib = CC(C)(N)C(=O)O

Key:
[1] = biological target: T1, human GLP-1 receptor (Homo sapiens, UniProt P43220); experiment: Stimulation of cAMP formation in a cell line expressing the cloned human GLP-1 receptor; type: biochemical
T1 construct: expressed in transfected cells; host or cells: BHK467-12A (tk-ts13) baby hamster kidney cells; purified plasma membranes

[2] = biological target: human serum albumin (HSA) (Homo sapiens, UniProt P02768); experiment: Albumin binding affinity, competition scintillation proximity assay (SPA)
Experimental: Streptavidin-SPA beads (GE Healthcare RPNQ0009) were incubated with biotinylated HSA for 5 hours. The beads were washed with buffer to remove unbound HSA. […] After 20 hours of gentle rocking at room temperature the plates were centrifuged and counted on a TopCounter.

[3] = cAMP production, purified plasma membranes from BHK467-12A (tk-ts13), AlphaScreen cAMP Assay Kit, read-out: Potency [EC50/nM]

T1 sequence (P43220 24-463): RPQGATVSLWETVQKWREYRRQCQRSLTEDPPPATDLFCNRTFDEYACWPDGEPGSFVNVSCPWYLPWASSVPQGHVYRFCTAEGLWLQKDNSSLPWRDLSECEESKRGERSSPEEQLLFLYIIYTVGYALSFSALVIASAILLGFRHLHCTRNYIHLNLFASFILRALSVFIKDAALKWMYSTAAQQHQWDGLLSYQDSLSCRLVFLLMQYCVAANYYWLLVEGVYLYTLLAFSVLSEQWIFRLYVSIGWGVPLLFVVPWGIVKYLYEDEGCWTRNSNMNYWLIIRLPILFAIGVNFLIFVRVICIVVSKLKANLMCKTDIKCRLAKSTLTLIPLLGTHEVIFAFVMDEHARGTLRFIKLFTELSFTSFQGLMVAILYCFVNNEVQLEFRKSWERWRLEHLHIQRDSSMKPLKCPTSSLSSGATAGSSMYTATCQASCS
Chain of human serum albumin (HSA) (P02768 25-609): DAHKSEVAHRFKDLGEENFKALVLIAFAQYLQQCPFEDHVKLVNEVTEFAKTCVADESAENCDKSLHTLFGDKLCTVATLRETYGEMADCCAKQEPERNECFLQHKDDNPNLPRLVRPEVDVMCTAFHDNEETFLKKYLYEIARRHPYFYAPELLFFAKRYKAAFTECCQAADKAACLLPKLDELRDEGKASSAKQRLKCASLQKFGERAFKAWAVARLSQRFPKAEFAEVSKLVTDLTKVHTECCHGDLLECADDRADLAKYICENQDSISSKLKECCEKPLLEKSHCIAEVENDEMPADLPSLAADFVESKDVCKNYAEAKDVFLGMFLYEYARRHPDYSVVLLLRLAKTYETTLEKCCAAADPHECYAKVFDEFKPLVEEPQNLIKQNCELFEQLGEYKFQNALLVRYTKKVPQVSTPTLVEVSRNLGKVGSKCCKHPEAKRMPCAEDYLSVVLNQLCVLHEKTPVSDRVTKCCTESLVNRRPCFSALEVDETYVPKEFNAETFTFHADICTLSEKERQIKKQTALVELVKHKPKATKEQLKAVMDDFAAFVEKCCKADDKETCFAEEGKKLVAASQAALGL

Compound	EC50 [1, 3] [nM]	EC50 [2] [nM]	EC50 [1] [nM]
CC[C@H](C)[C@H](NC(=O)[C@H](Cc1ccccc1)NC(=O)[C@H](CCC(=O)O)NC(=O)[C@H](CCCNC(=N)N)NC(=O)[C@H](C)NC(=O)[C@H](C)NC(=O)[C@H](CCC(N)=O)NC(=O)[C@H](CCC(=O)O)NC(=O)[C@H](CCC(=O)O)NC(=O)[C@H](CC(C)C)NC(=O)[C@H](Cc1ccc(O)cc1)NC(=O)[C@H](CO)NC(=O)[C@H](CO)NC(=O)[C@@H](NC(=O)[C@H](CC(=O)O)NC(=O)[C@H](CO)NC(=O)[C@@H](NC(=O)[C@H](Cc1ccccc1)NC(=O)[C@@H](NC(=O)CNC(=O)[C@H](CCC(=O)O)NC(=O)C(C)(C)NC(=O)[C@@H](N)Cc1c[nH]cn1)[C@@H](C)O)[C@@H](C)O)C(C)C)C(=O)N[C@@H](C)C(=O)N[C@@H](Cc1c[nH]c2ccccc12)C(=O)N[C@@H](CC(C)C)C(=O)N[C@H](C(=O)N[C@@H](CCCNC(=N)N)C(=O)NCC(=O)N[C@@H](CCCNC(=N)N)C(=O)N[C@@H](CCCCNC(=O)COCCOCCNC(=O)COCCOCCNC(=O)CC[C@H](NC(=O)CCCCCCCCCCCCCCCCC(=O)O)C(=O)O)C(=O)O)C(C)C [Example 27, N-epsilon37-[2-(2-{2-[2-(2-{2-[(S)-4-Carboxy-4-(17-carboxy-heptadecanoylamino)-butyrylamino]-ethoxy}-ethoxy)-acetylamino]-ethoxy}-ethoxy)-acetyl] [Aib8,Glu22,Arg26,Arg34,Lys37]GLP-1-(7-37)]	0.05	100 to 150	
CC[C@H](C)[C@H](NC(=O)[C@H](Cc1ccccc1)NC(=O)[C@H](CCC(=O)O)NC(=O)[C@H](CCCNC(=N)N)NC(=O)[C@H](C)NC(=O)[C@H](C)NC(=O)[C@H](CCC(N)=O)NC(=O)[C@H](CCC(=O)O)NC(=O)[C@H](CCC(=O)O)NC(=O)[C@H](CC(C)C)NC(=O)[C@H](Cc1ccc(O)cc1)NC(=O)[C@H](CO)NC(=O)[C@H](CO)NC(=O)[C@@H](NC(=O)[C@H](CC(=O)O)NC(=O)[C@H](CO)NC(=O)[C@@H](NC(=O)[C@H](Cc1ccccc1)NC(=O)[C@@H](NC(=O)CNC(=O)[C@H](CCC(=O)O)NC(=O)[C@H](C)NC(=O)CCc1c[nH]cn1)[C@@H](C)O)[C@@H](C)O)C(C)C)C(=O)N[C@@H](C)C(=O)N[C@@H](Cc1c[nH]c2ccccc12)C(=O)N[C@@H](CC(C)C)C(=O)N[C@H](C(=O)N[C@@H](CCCNC(=N)N)C(=O)NCC(=O)N[C@@H](CCCNC(=N)N)C(=O)N[C@@H](CCCCNC(=O)COCCOCCNC(=O)COCCOCCNC(=O)CC[C@H](NC(=O)CCCCCCCCCCCCCCCCC(=O)O)C(=O)O)C(=O)O)C(C)C [Example 29, N-epsilon37-[2-(2-{2-[2-(2-{2-[(S)-4-Carboxy-4-(17-carboxy-heptadecanoylamino)-butyrylamino]-ethoxy}-ethoxy)-acetylamino]-ethoxy}-ethoxy)-acetyl] [desaminoHis7,Glu22,Arg26,Arg34,Lys37] GLP-1-(7-37)]	0.1	400 to 800	
CC[C@H](C)[C@H](NC(=O)[C@H](Cc1ccccc1)NC(=O)[C@H](CCC(=O)O)NC(=O)[C@H](CCCNC(=N)N)NC(=O)[C@H](C)NC(=O)[C@H](C)NC(=O)[C@H](CCC(N)=O)NC(=O)[C@H](CCC(=O)O)NC(=O)[C@H](CCC(=O)O)NC(=O)[C@H](CC(C)C)NC(=O)[C@H](Cc1ccc(O)cc1)NC(=O)[C@H](CO)NC(=O)[C@H](CO)NC(=O)[C@@H](NC(=O)[C@H](CC(=O)O)NC(=O)[C@H](CO)NC(=O)[C@@H](NC(=O)[C@H](Cc1ccccc1)NC(=O)[C@@H](NC(=O)CNC(=O)[C@H](CCC(=O)O)NC(=O)C(C)(C)NC(=O)[C@@H](N)Cc1c[nH]cn1)[C@@H](C)O)[C@@H](C)O)C(C)C)C(=O)N[C@@H](C)C(=O)N[C@@H](Cc1c[nH]c2ccccc12)C(=O)N[C@@H](CC(C)C)C(=O)N[C@H](C(=O)N[C@@H](CCCNC(=N)N)C(=O)NCC(=O)N[C@@H](CCCNC(=N)N)C(=O)N[C@@H](CCCCNC(=O)COCCOCCNC(=O)COCCOCCNC(=O)CC[C@H](NC(=O)[C@H]1CC[C@H](CNC(=O)CCCCCCCCCCCCCCCCCCC(=O)O)CC1)C(=O)O)C(=O)O)C(C)C [Example 32, N-epsilon37-[2-(2-{2-[2-(2-{2-[(S)-4-Carboxy-4-({trans-4-[(19-carboxynonadecanoylamino)methyl]cyclohexanecarbonyl}amino)butyrylamino]ethoxy}ethoxy)acetylamino]ethoxy}ethoxy)acetyl][Aib8,Glu22,Arg26,Arg34,Lys37]GLP-1-(7-37)]		1 to 100	0.46
CC[C@H](C)[C@H](NC(=O)[C@H](Cc1ccccc1)NC(=O)[C@H](CCC(=O)O)NC(=O)[C@H](CCCNC(=N)N)NC(=O)[C@@H](NC(=O)[C@H](C)NC(=O)[C@H](CCC(N)=O)NC(=O)[C@H](CCC(=O)O)NC(=O)[C@H](CCC(=O)O)NC(=O)[C@H](CCCCN)NC(=O)[C@H](Cc1ccc(O)cc1)NC(=O)[C@H](CO)NC(=O)[C@H](CO)NC(=O)[C@@H](NC(=O)[C@H](CC(=O)O)NC(=O)[C@H](CO)NC(=O)[C@@H](NC(=O)[C@H](Cc1ccccc1)NC(=O)[C@@H](NC(=O)CNC(=O)[C@H](CCC(=O)O)NC(=O)C(C)(C)NC(=O)[C@@H](N)Cc1c[nH]cn1)[C@@H](C)O)[C@@H](C)O)C(C)C)C(C)C)C(=O)N[C@@H](C)C(=O)N[C@@H](CCCCNC(=O)COCCOCCNC(=O)COCCOCCNC(=O)CC[C@H](NC(=O)CCCCCCCCCCCCCCCCC(=O)O)C(=O)O)C(=O)N[C@@H](CC(C)C)C(=O)N[C@H](C(=O)N[C@@H](CCCNC(=N)N)C(=O)N[C@@H](CCCNC(=N)N)C(=O)N[C@@H](CCCNC(=N)N)C(=O)N[C@@H](CCCNC(=N)N)C(=O)O)C(C)C [Example 34, N-epsilon31-[2-(2-{2-[2-(2-{2-[(S)-4-Carboxy-4-(17-carboxyheptadecanoylamino)butyrylamino]ethoxy}ethoxy)acetylamino]ethoxy}ethoxy)acetyl][Aib8,Glu22,Val25,Arg26,Lys31,Arg34,Arg35,Arg37]GLP-1-(7-37)] (H-H[Aib]EGTFTSDVSSYKEEQAVREFIAK([AEEA-AEEA-γGlu-C18 diacid])LVRRRR-OH)	1.27	> 2000	
CC[C@H](C)[C@H](NC(=O)[C@H](Cc1ccccc1)NC(=O)[C@H](CCC(=O)O)NC(=O)[C@H](CCCNC(=N)N)NC(=O)[C@@H](NC(=O)[C@H](C)NC(=O)[C@H](CCC(N)=O)NC(=O)[C@H](CCC(=O)O)NC(=O)[C@H](CCC(=O)O)NC(=O)[C@H](CCCCN)NC(=O)[C@H](Cc1ccc(O)cc1)NC(=O)[C@H](CO)NC(=O)[C@H](CO)NC(=O)[C@@H](NC(=O)[C@H](CC(=O)O)NC(=O)[C@H](CO)NC(=O)[C@@H](NC(=O)[C@H](Cc1ccccc1)NC(=O)[C@@H](NC(=O)CNC(=O)[C@H](CCC(=O)O)NC(=O)C(C)(C)NC(=O)[C@@H](N)Cc1c[nH]cn1)[C@@H](C)O)[C@@H](C)O)C(C)C)C(C)C)C(=O)N[C@@H](C)C(=O)N[C@@H](CCCCNC(=O)COCCOCCNC(=O)COCCOCCNC(=O)CC[C@H](NC(=O)CCCCCCCCCCCCCCCCC(=O)O)C(=O)O)C(=O)N[C@@H](CC(C)C)C(=O)N[C@H](C(=O)N[C@@H](CCCNC(=N)N)C(=O)N[C@@H](CCCNC(=N)N)C(=O)N[C@@H](CCCNC(=N)N)C(=O)N[C@@H](CCCNC(=N)N)C(=O)N[C@@H](CCCNC(=N)N)C(=O)N[C@@H](CCCNC(=N)N)C(=O)N[C@@H](CCCNC(=N)N)C(=O)N[C@@H](CCCNC(=N)N)C(=O)O)C(C)C [Example 35] (H-H[Aib]EGTFTSDVSSYKEEQAVREFIAK([AEEA-AEEA-γGlu-C18 diacid])LVRRRRRRRR-OH)	0.74	800 to 1500	
